US20260097047A1, “Small molecule inhibitors of the ribosome biogenesis factor NVL2” (Board of Regents, The University of Texas System, priority 2023, published 2026)

Test system: HCT116 cells
Assay: Cell viability assay (CellTiter-Glo, 72 hours) in HCT116 human colorectal cancer cells
Type: cell-based
Conditions: Table 7; cell viability assay, CellTiter-Glo, 72 hours; scaffold drawing 42 with R^2, R^3, X/Y, Z; read-out: Activity
Procedure, shortened: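 Ten-point IC50 came from an asymmetric five-parameter fit of luminescence corrected to vehicle wells. ATP content was measured by CellTiter-Glo 72 h after dosing at 37 °C. Cells were seeded at 2,000/well the day before, with 0.5% DMSO in all wells.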

IC50	SMILES
< 500 nM	C=CCN1C(=O)c2ccccc2Sc2cc(NC(=O)c3ccoc3)ccc21 [—CH2CH═CH2; furan-3-yl; CH/CH; S]
< 500 nM	CCCC=CCN1C(=O)c2ccccc2Sc2cc(NC(=O)c3ccoc3)ccc21 [—CH2CH═CHPr; furan-3-yl; CH/CH; S]

Same assay, conditions: Table 8; analogs of scaffold drawing 43 defined by R^2, R^3, X/Y, W; read-out: Activity (IC50 class, cell viability assay)

IC50	SMILES
< 500 nM	CC#CCN1C(=O)c2ccccc2Sc2cc(NC(=O)C=CCOC)ccc21 [—CH2CCMe; CH═CHCH2OMe; CH/CH; CH]
< 500 nM	CC#CCN1C(=O)c2ccc(Cl)cc2Sc2cc(NC(=O)C(C)CCOC)ccc21 (centres unmarked) [—CH2CCMe; MeO(CH2)2CHMe-; CCI/CH; CH]
< 500 nM	CC#CCN1C(=O)c2cc(F)ccc2Sc2cc(NC(=O)C(C)CCOC)ccc21 (centres unmarked) [—CH2CCMe; MeO(CH2)2CHMe-; CH/CF; CH]
< 500 nM	CC#CCN1C(=O)c2ccccc2Sc2cc(NC(=O)C(C)CCOC)ccc21 (centres unmarked) [—CH2CCMe; MeO(CH2)2CHMe-; CH/CH; CH]
< 500 nM	CC#CCN1C(=O)c2ccccc2Sc2cc(NC(=O)C(C)CCOC)cnc21 (centres unmarked) [—CH2CCMe; MeO(CH2)2CHMe-; CH/CH; N]
< 500 nM	CC#CCN1C(=O)c2ccc(Cl)cc2Sc2cc(NC(=O)NCCOC)ccc21 [—CH2CCMe; NH(CH2)2OMe; CCl/CH; CH]
< 500 nM	CC#CCN1C(=O)c2ccc(Cl)cc2Sc2cc(NC(=O)NCCOC)cnc21 [—CH2CCMe; NH(CH2)2OMe; CCl/CH; N]
< 500 nM	CC#CCN1C(=O)c2ccccc2Sc2cc(NC(=O)NCCOC)ccc21 [—CH2CCMe; NH(CH2)2OMe; CH/CH; CH]
< 500 nM	CC#CCN1C(=O)c2ccccc2Sc2cc(NC(=O)NCCOC)cnc21 [—CH2CCMe; NH(CH2)2OMe; CH/CH; N]
< 500 nM	CC#CCN1C(=O)c2ccc(Cl)cc2Sc2cc(NC(=O)OCCOC)ccc21 [—CH2CCMe; O(CH2)2OMe; CCl/CH; CH]
< 500 nM	CC#CCN1C(=O)c2cc(F)ccc2Sc2cc(NC(=O)OCCOC)ccc21 [—CH2CCMe; O(CH2)2OMe; CH/CF; CH]
< 500 nM	CC#CCN1C(=O)c2ccccc2Sc2cc(NC(=O)OCCOC)ccc21 [—CH2CCMe; O(CH2)2OMe; CH/CH; CH]
< 500 nM	CC#CCN1C(=O)c2ccccc2Sc2cc(NC(=O)OCCOC)cnc21 [—CH2CCMe; O(CH2)2OMe; CH/CH; N]
< 500 nM	CC#CCN1C(=O)c2ccccc2Sc2cc(NC(=O)C3CCC3)ccc21 [—CH2CCMe; cBu; CH/CH; CH]
< 500 nM	CC#CCN1C(=O)c2ccccc2Sc2cc(NC(=O)C3CCC3)cnc21 [—CH2CCMe; cBu; CH/CH; N]
< 500 nM	CC#CCN1C(=O)c2ccccc2Sc2cc(NC(=O)C3CCCCC3)cnc21 [—CH2CCMe; cHex; CH/CH; N]
< 500 nM	CC#CCN1C(=O)c2ccccc2Sc2cc(NC(=O)C3CCCC3)cnc21 [—CH2CCMe; cPent; CH/CH; N]
< 500 nM	CC#CCN1C(=O)c2ccccc2Sc2cc(NC(=O)C3CC3)cnc21 [—CH2CCMe; cPr; CH/CH; N]
< 500 nM	CC#CCN1C(=O)c2ccc(Cl)cc2Sc2cc(NC(=O)[C@H]3C[C@@H](OC)C3)ccc21 [—CH2CCMe; cis-3-MeOcBu; CCI/CH; CH]
< 500 nM	CC#CCN1C(=O)c2cc(F)ccc2Sc2cc(NC(=O)[C@H]3C[C@@H](OC)C3)ccc21 [—CH2CCMe; cis-3-MeOcBu; CH/CF; CH]
< 500 nM	CC#CCN1C(=O)c2cc(F)ccc2Sc2cc(NC(=O)[C@H]3C[C@@H](OC)C3)cnc21 [—CH2CCMe; cis-3-MeOcBu; CH/CF; N]
< 500 nM	CC#CCN1C(=O)c2ccccc2Sc2cc(NC(=O)C3CC(OC)C3)ccc21 (stereo not drawn) [—CH2CCMe; cis-3-MeOcBu; CH/CH; CH]
< 500 nM	CC#CCN1C(=O)c2ccc(Cl)cc2Sc2cc(NC(=O)[C@H]3C[C@@H](O)C3)ccc21 [—CH2CCMe; cis-3-OH-cBu; CCI/CH; CH]
< 500 nM	CC#CCN1C(=O)c2ccc(Cl)cc2Sc2cc(NC(=O)[C@H]3C[C@@H](O)C3)cnc21 [—CH2CCMe; cis-3-OH-cBu; CCI/CH; N]
< 500 nM	CC#CCN1C(=O)c2ccccc2Sc2cc(NC(=O)[C@H]3C[C@@H](O)C3)ccc21 [—CH2CCMe; cis-3-OH-cBu; CH/CH; CH]

IC50	SMILES
< 500 nM	CC#CCN1C(=O)c2ccccc2Sc2cc(NC(=O)c3ccoc3)ccc21 [—CH2CCMe; furan-3-yl; CH/CH; CH]
< 500 nM	CC#CCN1C(=O)c2ccccc2Sc2cc(NC(=O)c3ccoc3)cnc21 [—CH2CCMe; furan-3-yl; CH/CH; N]
< 500 nM	CC#CCN1C(=O)c2ccc(Cl)cc2Sc2cc(NC(=O)C3COC3)ccc21 [—CH2CCMe; oxetan-3-yl; CCl/CH; CH]
< 500 nM	CC#CCN1C(=O)c2cc(F)ccc2Sc2cc(NC(=O)C3COC3)ccc21 [—CH2CCMe; oxetan-3-yl; CH/CF; CH]
< 500 nM	CC#CCN1C(=O)c2ccccc2Sc2cc(NC(=O)C3COC3)ccc21 [—CH2CCMe; oxetan-3-yl; CH/CH; CH]
1000 to 5000 nM	CC#CCN1C(=O)c2ccccc2Sc2cc(NC(=O)C3CCNC3)ccc21 (centres unmarked) [—CH2CCMe; pyrrolidin-3-yl; CH/CH; CH]
< 500 nM	CC#CCN1C(=O)c2cc(F)ccc2Sc2cc(NC(=O)C3CC3COC)ccc21 (stereo not drawn) [—CH2CCMe; trans-2-MeOCH2-cPr; CH/CF; CH]
< 500 nM	CC#CCN1C(=O)c2ccc(Cl)cc2Sc2cc(NC(=O)[C@H]3C[C@H](OC)C3)ccc21 [—CH2CCMe; trans-3-MeOcBu; CCl/CH; CH]
< 500 nM	CC#CCN1C(=O)c2ccc(F)cc2Sc2cc(NC(=O)[C@H]3C[C@H](OC)C3)cnc21 [—CH2CCMe; trans-3-MeOcBu; CF/CH; N]
< 500 nM	CC#CCN1C(=O)c2cc(F)ccc2Sc2cc(NC(=O)[C@H]3C[C@H](OC)C3)cnc21 [—CH2CCMe; trans-3-MeOcBu; CH/CF; N]
< 500 nM	CC#CCN1C(=O)c2ccc(Cl)cc2Sc2cc(NC(=O)[C@H]3C[C@H](O)C3)cnc21 [—CH2CCMe; trans-3-OH-cBu; CCl/CH; N]
< 500 nM	CC#CCN1C(=O)c2cc(F)ccc2Sc2cc(NC(=O)[C@H]3C[C@H](O)C3)ccc21 [—CH2CCMe; trans-3-OH-cBu; CH/CF; CH]
< 500 nM	CC#CCN1C(=O)c2ccccc2Sc2cc(NC(=O)[C@H]3C[C@H](O)C3)ccc21 [—CH2CCMe; trans-3-OH-cBu; CH/CH; CH]
< 500 nM	COCC1CC(C(=O)Nc2cnc3c(c2)Sc2ccccc2C(=O)N3CC#CC2CC2)C1 (centres unmarked) [—CH2CC^cPr; 3-MeOCH2-cBu; CH/CH; N]
< 500 nM	O=C(CCCO)Nc1cnc2c(c1)Sc1ccccc1C(=O)N2CC#CC1CC1 [—CH2CC^cPr; (CH2)3OH; CH/CH; N]
< 500 nM	COCCCC(=O)Nc1cnc2c(c1)Sc1ccccc1C(=O)N2CC#CC1CC1 [—CH2CC^cPr; (CH2)3OMe; CH/CH; N]
< 500 nM	O=C(CC1COC1)Nc1ccc2c(c1)Sc1ccc(F)cc1C(=O)N2CC#CC1CC1 [—CH2CC^cPr; (oxetan-3-yl)CH2; CH/CF; CH]
< 500 nM	O=C(CC1COC1)Nc1ccc2c(c1)Sc1ccccc1C(=O)N2CC#CC1CC1 [—CH2CC^cPr; (oxetan-3-yl)CH2; CH/CH; CH]
< 500 nM	O=C(CC1COC1)Nc1cnc2c(c1)Sc1ccccc1C(=O)N2CC#CC1CC1 [—CH2CC^cPr; (oxetan-3-yl)CH2; CH/CH; N]
< 500 nM	COCC=CC(=O)Nc1cnc2c(c1)Sc1ccccc1C(=O)N2CC#CC1CC1 [—CH2CC^cPr; CH═CHCH2OMe; CH/CH; N]
< 500 nM	COCCC(C)C(=O)Nc1cnc2c(c1)Sc1ccccc1C(=O)N2CC#CC1CC1 (centres unmarked) [—CH2CC^cPr; MeO(CH2)2CHMe-; CH/CH; N]
< 500 nM	CO[C@H]1C[C@@H](C(=O)Nc2cnc3c(c2)Sc2ccccc2C(=O)N3CC#CC2CC2)C1 [—CH2CC^cPr; cis-3-MeOcBu; CH/CH; N]
< 500 nM	O=C1c2ccccc2Sc2cc(NC(=O)[C@H]3C[C@@H](O)C3)cnc2N1CC#CC1CC1 [—CH2CC^cPr; cis-3-OH-cBu; CH/CH; N]
< 500 nM	CO[C@H]1C[C@H](C(=O)Nc2cnc3c(c2)Sc2ccccc2C(=O)N3CC#CC2CC2)C1 [—CH2CC^cPr; trans-3-MeOcBu; CH/CH; N]

SMILES	IC50
CC#CCN1C(=O)c2ccc(F)cc2Sc2cc(NC(=O)C3CCCO3)cnc21 (centres unmarked) [—CH2CCMe; tetrahydrofuran-2-yl; CF/CH; N]	< 500 nM
CC#CCN1C(=O)c2cc(F)ccc2Sc2cc(NC(=O)C3CCCO3)cnc21 (centres unmarked) [—CH2CCMe; tetrahydrofuran-2-yl; CH/CF; N]	< 500 nM
CC#CCN1C(=O)c2ccccc2Sc2cc(NC(=O)C3CCCO3)cnc21 (centres unmarked) [—CH2CCMe; tetrahydrofuran-2-yl; CH/CH; N]	< 500 nM
CC#CCN1C(=O)c2cc(F)ccc2Sc2cc(NC(=O)C3CCOC3)cnc21 (centres unmarked) [—CH2CCMe; tetrahydrofuran-3-yl; CH/CF; N]	< 500 nM
CC#CCN1C(=O)c2ccccc2Sc2cc(NC(=O)C3CCOC3)cnc21 (centres unmarked) [—CH2CCMe; tetrahydrofuran-3-yl; CH/CH; N]	< 500 nM

Same assay, conditions: cell viability assay; Table 10 analogs of scaffold drawing 45 defined by R2, R3, X/Y, W; read-out: Activity

IC50	SMILES
< 500 nM	CC#CCN1C(=O)c2ccccc2Sc2cc(NC(=O)C3CC(OC)C3)ccc21 (stereo not drawn) [—CH2CCMe; cis-3-MeOcBu; CH/CH; CH]
< 500 nM	CC#CCN1C(=O)c2ccc(Cl)cc2Sc2cc(NC(=O)[C@H]3C[C@H](OC)C3)ccc21 [—CH2CCMe; trans-3-MeOcBu; CCl/CH; CH]
< 500 nM	CC#CCN1C(=O)c2ccc(F)cc2Sc2cc(NC(=O)[C@H]3C[C@H](OC)C3)cnc21 [—CH2CCMe; trans-3-MeOcBu; CF/CH; N]
< 500 nM	COCC1CC(C(=O)Nc2cnc3c(c2)Sc2ccccc2C(=O)N3CC#CC2CC2)C1 (centres unmarked) [—CH2CCcPr; 3-MeOCH2-cBu; CH/CH; N]
< 500 nM	CO[C@H]1C[C@H](C(=O)Nc2cnc3c(c2)Sc2ccccc2C(=O)N3CC#CC2CC2)C1 [—CH2CCcPr; trans-3-MeOcBu; CH/CH; N]

Test system: p53 and p21
Assay: p53 and p21 protein levels in HCT116 cells
Type: cell-based, human
Conditions: not given
From the text: Inhibition of 60S ribosome biogenesis is known to induce the stability and upregulation of p53, which could serve as a potential pharmacodynamics marker for MM017 in HCT116 cells. […] We used PRISM (Broad Institute) to evaluate the selectivity of MM017 across 902 cancer cell lines and then correlated this selectivity to 1,215 clinical and pre-clinical compounds in the PRISM database. […] These observations indicate that oxaliplatin and carmofur, like MM017, target ribosome biogenesis.

SMILES	p53 levels in parental HCT116 cells
Cc1cnc(CNC(=O)c2c(=O)c3ccc(N4CCCN(C)CC4)nc3n3c2sc2ccccc23)cn1 [CX-5461, reference compound]	dose-dependent increase in the levels of p53
